Reference: ChEMBL document CHEMBL1201862, “PubChem BioAssay data set” (2004)
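Following 48 hours of exposure in 96-well plates, responses at five concentrations were used to interpolate endpoints linearly. GI50 = concentration required for 50% inhibition of growth.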 The source made the active and inactive calls. No stated cut-off is given here; in the data, active = GI50 up to about 1.1 µM and inactive = higher.

What was measured:
Test in all cases: NCI tumour cell line growth inhibition, 48 h
OVCAR-3 = test system: OVCAR-3
HCT-15 = test system: HCT-15
K562 = test system: K562
SW-620 = test system: SW-620
NCI-H460 = test system: NCI-H460
SF-539 = test system: SF-539
EKVX = test system: EKVX
COLO 205 = test system: COLO 205
MOLT-4 = test system: MOLT-4
NCI-H23 = test system: NCI-H23
LOX IMVI = test system: LOX IMVI
KM12 = test system: KM12
HOP-92 = test system: HOP-92
CAKI-1 = test system: CAKI-1
SF-268 = test system: SF-268
HCC 2998 = test system: HCC 2998
SR = test system: SR

Row | SMILES | GI50 (OVCAR-3) | GI50 (HCT-15) | GI50 (K562) | GI50 (SW-620) | GI50 (NCI-H460) | GI50 (SF-539) | GI50 (EKVX) | GI50 (COLO 205) | GI50 (MOLT-4) | GI50 (NCI-H23) | GI50 (LOX IMVI) | GI50 (KM12) | GI50 (HOP-92) | GI50 (CAKI-1) | GI50 (SF-268) | GI50 (HCC 2998) | GI50 (SR)
1 | Cc1ccccc1NC(=O)c1cc2cc(/N=N/c3ccccc3C(=O)O)ccc2oc1=O | 34.8 µM (inactive) | 10.6 µM | 23.6 µM (inactive) | 27.4 µM (inactive) | 21.1 µM (inactive) | 18 µM (inactive) | 48.6 µM (inactive) | 12.9 µM (inactive) | 18.7 µM (inactive) | 3.11 µM (inactive) | 16.4 µM (inactive) | 12.6 µM (inactive) | – | – | – | – | –
2 | CCCCOC(=O)NC(=O)c1cn(C2CCCCC2)c(=O)[nH]c1=O | 40.6 µM (inactive) | > 100 µM | > 100 µM (inactive) | > 100 µM (inactive) | > 100 µM (inactive) | 18.5 µM (inactive) | > 100 µM (inactive) | > 100 µM (inactive) | 98.6 µM (inactive) | 33 µM (inactive) | 55.2 µM (inactive) | 86.1 µM (inactive) | 14.3 µM (inactive) | > 10 µM (inactive) | 30.8 µM (inactive) | > 100 µM (inactive) | –
3 | COc1ccccc1-n1c(N)c2c(C)c(-c3ccccc3)[nH]c2nc1=S | > 100 µM (inactive) | > 100 µM | > 100 µM (inactive) | > 100 µM (inactive) | > 100 µM (inactive) | 33.7 µM (inactive) | – | > 100 µM (inactive) | > 100 µM (inactive) | 79.4 µM (inactive) | > 100 µM (inactive) | > 100 µM (inactive) | > 100 µM (inactive) | > 100 µM (inactive) | – | > 100 µM (inactive) | > 100 µM (inactive)
4 | S=C(N/N=C/c1ccco1)NC12CC3CC(CC(C3)C1)C2 | 84.1 µM (inactive) | 47.4 µM | 43.8 µM (inactive) | > 100 µM (inactive) | 66.2 µM (inactive) | > 100 µM (inactive) | > 100 µM (inactive) | 15.3 µM (inactive) | 39.4 µM (inactive) | > 100 µM (inactive) | 86.5 µM (inactive) | > 100 µM (inactive) | 47 µM (inactive) | > 100 µM (inactive) | > 100 µM (inactive) | 74.8 µM (inactive) | –
5 | Cc1ccc(S(=O)(=O)OCC23CCC(CC2)C2CC23)cc1 (configuration not stated) | 31.9 µM (inactive) | 47.6 µM | 39.6 µM (inactive) | 87.1 µM (inactive) | 42.4 µM (inactive) | – | – | 61.8 µM (inactive) | 35.4 µM (inactive) | 38.3 µM (inactive) | 42.7 µM (inactive) | – | 25.8 µM (inactive) | 49.8 µM (inactive) | 37.5 µM (inactive) | > 100 µM (inactive) | 30.2 µM (inactive)
6 | CCc1cccc(C)c1NC(=O)CC1C(=O)Nc2ccccc2[S+]1[O-] (configuration not stated) | 57.3 µM (inactive) | 35.6 µM | 24.7 µM (inactive) | 48.3 µM (inactive) | 33.6 µM (inactive) | 29.2 µM (inactive) | – | 39.2 µM (inactive) | 37.1 µM (inactive) | 31.3 µM (inactive) | 44.5 µM (inactive) | 54.2 µM (inactive) | 53.7 µM (inactive) | 53.6 µM (inactive) | 42.2 µM (inactive) | 56.4 µM (inactive) | 34 µM (inactive)
7 | CC1=C(C(=O)CC(=O)C(=O)NC2C3CC4CC(C3)CC2C4)Sc2ccccc2N1 (configuration not stated) | > 100 µM (inactive) | > 71.4 µM | 84.3 µM (inactive) | > 100 µM (inactive) | > 100 µM (inactive) | > 100 µM (inactive) | > 100 µM (inactive) | > 31.6 µM (inactive) | 4.43 µM (inactive) | > 100 µM (inactive) | > 100 µM (inactive) | > 86.3 µM (inactive) | 20.1 µM (inactive) | 99.1 µM (inactive) | > 94.8 µM (inactive) | > 100 µM (inactive) | –
8 | CNc1nnnn1C1OC(CO)C(O)C1O (configuration not stated) | > 100 µM (inactive) | > 100 µM | > 100 µM (inactive) | > 100 µM (inactive) | > 100 µM (inactive) | > 100 µM (inactive) | > 100 µM (inactive) | > 100 µM (inactive) | > 100 µM (inactive) | – | > 100 µM (inactive) | > 100 µM (inactive) | – | > 100 µM (inactive) | > 100 µM (inactive) | > 100 µM (inactive) | –
9 | Cc1nc2c(n1Cc1ccc(Cl)cc1)C(=O)c1ccccc1C2=O | 67.3 µM (inactive) | 1.07 µM | 2.06 µM (inactive) | – | 1.75 µM (inactive) | 2.48 µM (inactive) | > 75 µM (inactive) | > 75 µM (inactive) | 3.14 µM (inactive) | > 75 µM (inactive) | 2.05 µM (inactive) | > 75 µM (inactive) | – | – | 5.09 µM (inactive) | > 75 µM (inactive) | 1.32 µM (inactive)
10 | Cc1noc2cccc(OCc3ccccc3)c12 | 94.8 µM (inactive) | 50.8 µM | 43 µM (inactive) | > 100 µM (inactive) | > 100 µM (inactive) | > 100 µM (inactive) | 35.7 µM (inactive) | 52.1 µM (inactive) | 39.5 µM (inactive) | > 100 µM (inactive) | 51.3 µM (inactive) | 91.2 µM (inactive) | 43.3 µM (inactive) | 38.1 µM (inactive) | > 100 µM (inactive) | – | 34.6 µM (inactive)
11 | COc1cccc(NC(=O)/C(Cc2nc3ccccc3nc2C)=N/NC(=O)C[n+]2ccccc2)c1 | > 100 µM (inactive) | > 100 µM | 71.9 µM (inactive) | 9.08 µM (inactive) | 66.4 µM (inactive) | > 100 µM (inactive) | > 100 µM (inactive) | 20.8 µM (inactive) | > 100 µM (inactive) | > 100 µM (inactive) | > 100 µM (inactive) | > 100 µM (inactive) | – | > 100 µM (inactive) | > 100 µM (inactive) | > 100 µM (inactive) | > 100 µM (inactive)
12 | CCN(CC)C(=O)CC12CCCCC1=Nc1ccccc12 (configuration not stated) | > 100 µM (inactive) | > 100 µM | > 100 µM (inactive) | > 100 µM (inactive) | > 100 µM (inactive) | > 100 µM (inactive) | > 100 µM (inactive) | > 100 µM (inactive) | > 100 µM (inactive) | > 100 µM (inactive) | > 100 µM (inactive) | > 100 µM (inactive) | 51.6 µM (inactive) | > 100 µM (inactive) | – | > 100 µM (inactive) | –
13 | Cn1ccnc1Cn1cc(-c2cccc(-c3cn[nH]c3)c2)cn1 | > 100 µM (inactive) | 79.3 µM | 55 µM (inactive) | 82.6 µM (inactive) | > 100 µM (inactive) | – | 14.6 µM (inactive) | > 100 µM (inactive) | 63.4 µM (inactive) | – | 88.5 µM (inactive) | > 100 µM (inactive) | 50.1 µM (inactive) | 15.2 µM (inactive) | 44.6 µM (inactive) | > 100 µM (inactive) | 80 µM (inactive)
14 | O=[N+]([O-])c1ccc2nc(/C(=N/Nc3ccccc3)C(O)c3ccc(Cl)cc3Cl)c(O)nc2c1 (configuration not stated) | > 100 µM (inactive) | > 100 µM | 30 µM (inactive) | – | > 100 µM (inactive) | > 100 µM (inactive) | > 100 µM (inactive) | 38.9 µM (inactive) | 84.5 µM (inactive) | > 100 µM (inactive) | > 100 µM (inactive) | 49.3 µM (inactive) | > 100 µM (inactive) | – | > 100 µM (inactive) | > 100 µM (inactive) | 29.6 µM (inactive)
15 | COc1cc2c(cc1O)CN1CCC23C=C[C@@H](O)CC13 (some centres not stated) | > 100 µM (inactive) | 68.4 µM | 51.3 µM (inactive) | 59.6 µM (inactive) | 62.8 µM (inactive) | – | 65.8 µM (inactive) | 27.7 µM (inactive) | 45.5 µM (inactive) | 78.7 µM (inactive) | 46.6 µM (inactive) | 54 µM (inactive) | > 100 µM (inactive) | > 100 µM (inactive) | 59.6 µM (inactive) | 56.9 µM (inactive) | 40.6 µM (inactive)
16 | CC(C)=CC(=O)N(C)C1C2CN3CCC(O2)C13 (configuration not stated) | > 100 µM (inactive) | > 100 µM | > 100 µM (inactive) | > 100 µM (inactive) | > 100 µM (inactive) | > 100 µM (inactive) | > 100 µM (inactive) | > 100 µM (inactive) | > 100 µM (inactive) | > 100 µM (inactive) | > 100 µM (inactive) | > 100 µM (inactive) | – | > 100 µM (inactive) | > 100 µM (inactive) | > 100 µM (inactive) | –
17 | O=C1C(c2ccc([N+](=O)[O-])cc2)=[N+]([O-])c2ccccc21 | 19.9 µM (inactive) | 17.3 µM | 26.5 µM (inactive) | 32.4 µM (inactive) | 37 µM (inactive) | 37.9 µM (inactive) | 32.8 µM (inactive) | 11.1 µM (inactive) | 31.5 µM (inactive) | 23.3 µM (inactive) | 21.1 µM (inactive) | 34.8 µM (inactive) | 31 µM (inactive) | 42.2 µM (inactive) | 40.8 µM (inactive) | – | 23.7 µM (inactive)
18 | COC(=O)[C@H]1[C@H]2C[C@@H]3c4[nH]c5cc(OC)ccc5c4CCN3C[C@H]2C[C@@H](OC(=O)c2cc(OC)c(OC)c(OC)c2)[C@@H]1OC [RESERPINE] | 18.3 µM (inactive) | 20.3 µM | 7.11 µM (inactive) | 26.8 µM (inactive) | 18.9 µM (inactive) | 11.6 µM (inactive) | – | 15.7 µM (inactive) | 7.19 µM (inactive) | 18.1 µM (inactive) | – | 18.4 µM (inactive) | 10.8 µM (inactive) | 18.1 µM (inactive) | 28.1 µM (inactive) | 27.8 µM (inactive) | 6.12 µM (inactive)
